The results in this text go back to ChEMBL document CHEMBL5653593 (Clin Sci (Lond), 2002).

Test [1] addresses T1, Endothelin-1 receptor (Rattus norvegicus, UniProt P26684).
T1 sequence (P26684 whole entry): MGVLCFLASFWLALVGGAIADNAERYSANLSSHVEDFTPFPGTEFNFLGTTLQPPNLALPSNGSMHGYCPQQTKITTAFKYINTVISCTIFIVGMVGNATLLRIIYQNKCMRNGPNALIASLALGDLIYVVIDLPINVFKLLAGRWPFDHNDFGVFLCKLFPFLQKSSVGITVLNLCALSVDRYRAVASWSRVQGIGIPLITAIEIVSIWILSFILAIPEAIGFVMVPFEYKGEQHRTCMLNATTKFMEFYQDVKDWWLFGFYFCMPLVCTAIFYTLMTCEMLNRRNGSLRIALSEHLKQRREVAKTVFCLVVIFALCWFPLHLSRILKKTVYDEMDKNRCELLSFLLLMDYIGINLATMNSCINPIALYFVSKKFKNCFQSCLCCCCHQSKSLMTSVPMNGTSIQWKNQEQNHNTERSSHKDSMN
Put plainly: Antagonist activity at ETA receptor in rat MMQ cells assessed as inhibition of phosphatidylinositol hydrolysis by myo-[3H]inositol radioactivity based assay. The class given is functional, cell-based.

Test [2] has as its target T2, Endothelin receptor type B (Homo sapiens, UniProt P24530).
T2 sequence (P24530 whole entry): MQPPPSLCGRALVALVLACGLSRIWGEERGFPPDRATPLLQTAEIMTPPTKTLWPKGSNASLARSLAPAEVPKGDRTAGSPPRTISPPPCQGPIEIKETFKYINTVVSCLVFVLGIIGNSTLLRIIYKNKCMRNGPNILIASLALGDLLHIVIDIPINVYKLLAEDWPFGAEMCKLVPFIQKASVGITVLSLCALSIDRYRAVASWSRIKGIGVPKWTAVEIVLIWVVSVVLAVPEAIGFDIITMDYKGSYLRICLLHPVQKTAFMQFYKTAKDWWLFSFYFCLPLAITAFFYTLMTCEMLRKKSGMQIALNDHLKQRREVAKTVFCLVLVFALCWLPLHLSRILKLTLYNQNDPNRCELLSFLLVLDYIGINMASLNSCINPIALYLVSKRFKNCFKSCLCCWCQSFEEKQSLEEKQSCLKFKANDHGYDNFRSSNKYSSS
Put plainly: Binding affinity to human ETB receptor transfected in CHO cell membrane assessed as inhibition constant incubated for 3 hrs by 125I-labelled ET-1 saturation binding assay. The class given is cell membranes.

Test [3] has as its target T2, Endothelin receptor type B. Put plainly: Antagonist activity at human ETB receptor transfected in CHO cell membrane […]. It is filed as functional, cell membranes.
For test [4], the target named is T3, Endothelin-1 receptor (Homo sapiens, UniProt P25101).
T3 sequence (P25101 whole entry): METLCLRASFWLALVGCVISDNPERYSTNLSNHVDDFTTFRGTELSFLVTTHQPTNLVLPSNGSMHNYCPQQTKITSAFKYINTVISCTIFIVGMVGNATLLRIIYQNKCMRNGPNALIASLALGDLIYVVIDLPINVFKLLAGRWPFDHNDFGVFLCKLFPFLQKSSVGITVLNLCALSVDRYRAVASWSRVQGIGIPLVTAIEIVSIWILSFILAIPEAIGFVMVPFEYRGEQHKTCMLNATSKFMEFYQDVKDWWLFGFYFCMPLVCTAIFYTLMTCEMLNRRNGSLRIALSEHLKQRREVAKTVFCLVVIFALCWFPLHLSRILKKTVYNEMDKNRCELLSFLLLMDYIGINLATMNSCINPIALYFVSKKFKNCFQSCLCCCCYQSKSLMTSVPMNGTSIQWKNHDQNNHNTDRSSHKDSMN
The experiment in a line: Antagonist activity at human ETA receptor transfected in CHO cell membrane assessed as inhibition of 125I-labelled ET-1 binding to receptor incubated for 3 hrs by competition binding assay. It is filed as functional, cell membranes.

The target of test [5] is T3, Endothelin-1 receptor. Put plainly: Binding affinity to human ETA receptor transfected in CHO cell membrane assessed as inhibition constant incubated for 3 hrs by 125I-labelled ET-1 saturation binding assay. It is filed as cell membranes.

By IC50 is commonly meant the point on the concentration scale where inhibition reaches its midpoint. For orientation: Ki means the dissociation constant of the complex between target and ligand, obtained from inhibition or displacement.

As for `CCCCN(CCCC)C(=O)CN1C[C@H](c2cc(OC)c3c(c2)OCO3)[C@@H](C(=O)O)[C@@H]1CC(C)(C)CCC` [ABT-546], the half-inhibitory concentration (IC50) in test [1] came to 0.59 nM.
As for `CCCCCS(=O)(=O)N(CCC)CCN1C[C@H](c2ccc3c(c2)OCO3)[C@@H](C(=O)O)[C@@H]1c1ccc(OC)c(F)c1`, in test [2], the Ki is 1.23 nM. Also, the IC50 in test [3] worked out at 1.12 nM.
Consider `CCCOc1ccc([C@H]2[C@H](C(=O)O)[C@@H](c3ccc4c(c3)OCO4)CN2CC(=O)Nc2c(CC)cccc2CC)cc1` [A-192621], for which the IC50 in test [1] is at least 700 nM; in test [4], 4280 nM; in test [3], 0.59 nM. Also, the Ki in test [5] was found to be 5600 nM.
